Test results as given in publication PMC8037182, “Solvothermal Synthesis of Multiple Dihydropyrimidinones at a Time as Inhibitors of Eg5” (Molecules, 2021).

Experiments:
Hela cell line = test: Cytotoxicity MTS assay, Hela cell line; format: cell-based; details: for OD490 Mean / OD490 Well 1 / OD490 Well 2 / OD490 Well 3: Hela cell line;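 as to OD490 Mean: blank control DMSO at 0.025% final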;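 as to OD490 Well 1: blank control DMSO at 0.025% final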;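 as to OD490 Well 2: blank control DMSO at 0.025% final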;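 as to OD490 Well 3: blank control DMSO at 0.025% final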
In short: (§1)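 Growth inhibition is measured by MTS conversion, read as absorbance at 490 nm after 2 h at 37 °C. Compounds act on cells seeded at 1000/well for 24 h across 0.5–100 µM final. Data derive from three independent duplicate experiments.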

T24 cell line = test: Cytotoxicity MTS assay, T24 cell line; format: cell-based; details: for OD490 Mean / OD490 Well 1 / OD490 Well 2 / OD490 Well 3: T24 cell line, first assay;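 as to OD490 Mean: blank control wells received 0.025% DMSO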;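 as to OD490 Well 1: blank control wells received 0.025% DMSO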;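 as to OD490 Well 2: blank control wells received 0.025% DMSO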;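 as to OD490 Well 3: blank control wells received 0.025% DMSO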
In short: as §1

## COC(=O)c1[nH]c(C2NC(=S)NC(C)=C2C(=O)c2ccccc2)c(C(=O)OC)c1C (centres unmarked) [D14]
Hela cell line; 0.5μM, first assay
  OD490 Mean: 2.3692
  OD490 Well 1: 2.2024
  OD490 Well 2: 2.5165
  OD490 Well 3: 2.3887
Hela cell line; 0.5μM, second assay
  OD490 Mean: 2.4577
  OD490 Well 1: 2.5398
  OD490 Well 2: 2.4478
  OD490 Well 3: 2.3854
Hela cell line; 0.5μM, third assay
  OD490 Mean: 2.5210
  OD490 Well 1: 2.5365
  OD490 Well 2: 2.6899
  OD490 Well 3: 2.3365
Hela cell line; 1μM, first assay
  OD490 Mean: 2.4838
  OD490 Well 1: 2.3561
  OD490 Well 2: 2.5456
  OD490 Well 3: 2.5498
Hela cell line; 1μM, second assay
  OD490 Mean: 2.4907
  OD490 Well 1: 2.5353
  OD490 Well 2: 2.4889
  OD490 Well 3: 2.4478
Hela cell line; 1μM, third assay
  OD490 Mean: 2.5269
  OD490 Well 1: 2.4563
  OD490 Well 2: 2.5587
  OD490 Well 3: 2.5656
Hela cell line; 10μM, first assay
  OD490 Mean: 2.5226
  OD490 Well 1: 2.5006
  OD490 Well 2: 2.6290
  OD490 Well 3: 2.4381
Hela cell line; 10μM, second assay
  OD490 Mean: 2.5413
  OD490 Well 1: 2.4987
  OD490 Well 2: 2.5687
  OD490 Well 3: 2.5565
Hela cell line; 10μM, third assay
  OD490 Mean: 2.5164
  OD490 Well 1: 2.5321
  OD490 Well 2: 2.4598
  OD490 Well 3: 2.5574
Hela cell line; 25μM, first assay
  OD490 Mean: 2.4708
  OD490 Well 1: 2.2633
  OD490 Well 2: 2.6154
  OD490 Well 3: 2.5338
Hela cell line; 25μM, second assay
  OD490 Mean: 2.5615
  OD490 Well 1: 2.5835
  OD490 Well 2: 2.5478
  OD490 Well 3: 2.5532
Hela cell line; 25μM, third assay
  OD490 Mean: 2.4824
  OD490 Well 1: 2.3365
  OD490 Well 2: 2.4587
  OD490 Well 3: 2.6521
Hela cell line; 50μM, first assay
  OD490 Mean: 2.7660
  OD490 Well 1: 2.6176
  OD490 Well 2: 2.8052
  OD490 Well 3: 2.8752
Hela cell line; 50μM, second assay
  OD490 Mean: 2.6584
  OD490 Well 1: 2.6324
  OD490 Well 2: 2.5687
  OD490 Well 3: 2.7741
Hela cell line; 50μM, third assay
  OD490 Mean: 2.5680
  OD490 Well 1: 2.5574
  OD490 Well 2: 2.4768
  OD490 Well 3: 2.6698
Hela cell line; 100μM, first assay
  OD490 Mean: 2.5211
  OD490 Well 1: 2.7163
  OD490 Well 2: 2.4550
  OD490 Well 3: 2.3919
Hela cell line; 100μM, second assay
  OD490 Mean: 2.5251
  OD490 Well 1: 2.6987
  OD490 Well 2: 2.4465
  OD490 Well 3: 2.4301
Hela cell line; 100μM, third assay
  OD490 Mean: 2.6068
  OD490 Well 1: 2.6689
  OD490 Well 2: 2.5641
  OD490 Well 3: 2.5874
Hela cell line; MTS assay, 24 h exposure
  IC50: > 150 µM
T24 cell line; MTS assay, 24 h exposure
  IC50: > 150 µM
T24 cell line; 0.5μM
  OD490 Mean: 1.1342
  OD490 Well 1: 1.0996
  OD490 Well 2: 1.1541
  OD490 Well 3: 1.1489
T24 cell line; 1μM
  OD490 Mean: 1.3301
  OD490 Well 1: 1.2266
  OD490 Well 2: 1.4478
  OD490 Well 3: 1.3160
T24 cell line; 10μM
  OD490 Mean: 1.2661
  OD490 Well 1: 1.2502
  OD490 Well 2: 1.2630
  OD490 Well 3: 1.2850
T24 cell line; 25μM
  OD490 Mean: 1.2456
  OD490 Well 1: 1.2555
  OD490 Well 2: 1.2167
  OD490 Well 3: 1.2646
T24 cell line; 50μM
  OD490 Mean: 1.2309
  OD490 Well 1: 1.2932
  OD490 Well 2: 1.1700
  OD490 Well 3: 1.2295
T24 cell line; 100μM
  OD490 Mean: 1.4227
  OD490 Well 1: 1.3732
  OD490 Well 2: 1.4320
  OD490 Well 3: 1.4629
